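Interpolation was linear, between the two tested concentrations surrounding the appropriate level; five concentrations were tested over 48 hours in 96-well plates. GI50 is the concentration that inhibits growth by half. Definition used: TGI = concentration required for complete inhibition of growth.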

This is an account of results in PubChem BioAssay (NCI).

Some test systems named below: SNB-19 CNS; HL-60(TB) leukemia; HCT-116 colon; MDA-MB-435; SN12C renal; UO-31 renal; MOLT-4 leukemia; NCI-H460 lung; DU-145 prostate; SK-MEL-2 melanoma.
Common to all, as to test: growth of human tumour cells (NCI), 48 h

In the case of `N#Cc1c(NC(=O)CN2CCOCC2)sc2c1CCCC2`, the GI50 is over 25 µM in the experiment on SNB-19 CNS; over 25 µM in the experiment on HL-60(TB) leukemia; over 25000 nM in the experiment on HCT-116 colon; over 25 µM in the experiment on MDA-MB-435; over 25000 nM with SN12C renal; over 25000 nM in the experiment with UO-31 renal. Moreover, the GI50 with MOLT-4 leukemia, in the experiment on NCI-H460 lung, in the experiment with DU-145 prostate and in the experiment on SK-MEL-2 melanoma was over 25 µM throughout. In addition, the TGI in the experiment on SNB-19 CNS, in the experiment with HL-60(TB) leukemia, in the experiment with HCT-116 colon, in the experiment with MDA-MB-435, with SN12C renal and in the experiment on UO-31 renal was over 25 µM in each case. Further, the TGI with MOLT-4 leukemia, in the experiment on NCI-H460 lung, in the experiment with DU-145 prostate and in the experiment with SK-MEL-2 melanoma was over 25 µM throughout.
Take `N#Cc1c(-c2ccccc2)cc(-c2ccccc2)n(CCCCC(=O)NO)c1=O`: the GI50 with SNB-19 CNS was 3.53 µM; in the experiment with HL-60(TB) leukemia, 2.39 µM; in the experiment with HCT-116 colon it was 2370 nM; in the experiment on MDA-MB-435, 2.4 µM; in the experiment on SN12C renal it was 2950 nM; with UO-31 renal, 1220 nM. Also, the GI50 with MOLT-4 leukemia is 1.84 µM; with NCI-H460 lung, 3.71 µM; in the experiment with DU-145 prostate, 2.96 µM; in the experiment on SK-MEL-2 melanoma, 3.21 µM. Further, the TGI in the experiment with SNB-19 CNS was found to be 15.6 µM; with HL-60(TB) leukemia it was 6.84 µM; in the experiment on HCT-116 colon, 10.1 µM; with MDA-MB-435, 11.5 µM; in the experiment with SN12C renal it was 11.5 µM; with UO-31 renal, 3.47 µM. Further, the TGI in the experiment with MOLT-4 leukemia was 8.83 µM; in the experiment with NCI-H460 lung it was 15.2 µM; with DU-145 prostate, 11.3 µM; with SK-MEL-2 melanoma, 14.1 µM.
Turning to `Oc1cc(O)c2c(=S)cc(-c3ccc(Cl)cc3)oc2c1`, the GI50 in the experiment with SNB-19 CNS was 3.68 µM; in the experiment on HL-60(TB) leukemia it was 3.17 µM; in the experiment on HCT-116 colon, 2840 nM; in the experiment on MDA-MB-435, 3.41 µM; in the experiment with SN12C renal, 2780 nM; with UO-31 renal, 1210 nM. Also, the GI50 in the experiment on MOLT-4 leukemia is 3.76 µM; in the experiment on NCI-H460 lung, 2.96 µM; with DU-145 prostate it was 4.09 µM; in the experiment with SK-MEL-2 melanoma, 2.61 µM. Further, the TGI with SNB-19 CNS is 16.3 µM; in the experiment with HL-60(TB) leukemia, 22.5 µM; with HCT-116 colon, 10.4 µM; with MDA-MB-435, 14 µM; in the experiment on SN12C renal, 11.1 µM; in the experiment on UO-31 renal, 8.58 µM. For the same compound, the TGI in the experiment on MOLT-4 leukemia stood at 34.2 µM; with NCI-H460 lung it was 13.3 µM; in the experiment on DU-145 prostate, 35.1 µM; with SK-MEL-2 melanoma, 7.46 µM.
With `CCOC(=O)C1=C(C)NC(=O)NC1c1coc2cc(C)cc(C)c2c1=O` (stereo not given), the TGI was over 100 µM in the experiment with SNB-19 CNS; over 100 µM in the experiment on HL-60(TB) leukemia; over 100 µM in the experiment on HCT-116 colon; 45.4 µM in the experiment with MDA-MB-435; over 100 µM in the experiment on SN12C renal; over 100 µM with UO-31 renal. For the same compound, the TGI in the experiment on MOLT-4 leukemia was over 100 µM; in the experiment on NCI-H460 lung, over 100 µM; in the experiment with DU-145 prostate, over 100 µM; in the experiment with SK-MEL-2 melanoma it was 99.5 µM.
For the compound `CCOC(=O)c1c(C)n2c(=O)cc(C)c3c(OC(C)=O)c(OC(C)=O)cc1c32`, the GI50 in the experiment on SNB-19 CNS is 5.71 µM; in the experiment with HL-60(TB) leukemia, 3.2 µM; in the experiment on HCT-116 colon, 3560 nM; in the experiment with MDA-MB-435 it was 5.76 µM; with SN12C renal, 4970 nM; in the experiment on UO-31 renal, 4600 nM. Further, the GI50 in the experiment on MOLT-4 leukemia is 3.13 µM; in the experiment on NCI-H460 lung, 4.01 µM; in the experiment on DU-145 prostate it was 6.33 µM; in the experiment on SK-MEL-2 melanoma, 4.57 µM. In addition, the TGI in the experiment with SNB-19 CNS was over 65 µM; in the experiment on HL-60(TB) leukemia, 12.1 µM; with HCT-116 colon it was 17 µM; in the experiment on MDA-MB-435, over 53 µM; in the experiment with SN12C renal it was 28.2 µM; with UO-31 renal it was over 35.8 µM. The TGI is over 25.5 µM in the experiment on MOLT-4 leukemia, 18.9 µM in the experiment on NCI-H460 lung, 22.2 µM in the experiment with DU-145 prostate and 29.8 µM in the experiment on SK-MEL-2 melanoma.
For the compound `O=C(c1cccs1)c1c(C(F)(F)F)n([O-])c2ccc(F)cc2[n+]1=O`, the GI50 in the experiment with SNB-19 CNS was 1.38 µM; in the experiment with HL-60(TB) leukemia, 0.154 µM; in the experiment on HCT-116 colon, 922 nM; in the experiment on MDA-MB-435, 1.31 µM; with SN12C renal, 1580 nM; in the experiment on UO-31 renal, 1300 nM. Also, the GI50 in the experiment with MOLT-4 leukemia is 0.3 µM; in the experiment on NCI-H460 lung, 1.38 µM; in the experiment on DU-145 prostate, 1.15 µM; in the experiment on SK-MEL-2 melanoma, 0.841 µM. Besides, the TGI with SNB-19 CNS was 2.86 µM; in the experiment with HL-60(TB) leukemia, 0.394 µM; in the experiment with HCT-116 colon, 2.41 µM; in the experiment on MDA-MB-435, 2.87 µM; with SN12C renal, 4.33 µM; with UO-31 renal, 2.58 µM. In addition, the TGI with MOLT-4 leukemia was determined as 1.02 µM; in the experiment on NCI-H460 lung it was 3.84 µM; in the experiment on DU-145 prostate, 3.12 µM; in the experiment on SK-MEL-2 melanoma, 2.37 µM.
As to `CN1c2ccccc2S(=O)(=O)n2c(COc3ccc(Cl)cc3)nnc21`, the TGI with SNB-19 CNS, in the experiment on HL-60(TB) leukemia, with HCT-116 colon, in the experiment with MDA-MB-435, in the experiment on SN12C renal and in the experiment with UO-31 renal was over 100 µM in each case. Also, the TGI in the experiment on MOLT-4 leukemia, in the experiment with NCI-H460 lung, in the experiment on DU-145 prostate and with SK-MEL-2 melanoma was over 100 µM throughout.
As for `COC(=O)Nc1nc2cc3c(cc2s1)OCCO3`, the GI50 is over 50 µM in the experiment on SNB-19 CNS; over 50 µM in the experiment on HL-60(TB) leukemia; over 50000 nM with HCT-116 colon; over 50 µM with MDA-MB-435; over 50000 nM in the experiment with SN12C renal; over 50000 nM in the experiment with UO-31 renal. Further, the GI50 in the experiment with MOLT-4 leukemia, with NCI-H460 lung, in the experiment on DU-145 prostate and with SK-MEL-2 melanoma was over 50 µM each time. In addition, the TGI in the experiment on SNB-19 CNS, with HL-60(TB) leukemia, in the experiment on HCT-116 colon, with MDA-MB-435, in the experiment on SN12C renal and in the experiment on UO-31 renal was over 50 µM in each case. Moreover, the TGI in the experiment on MOLT-4 leukemia, in the experiment on NCI-H460 lung, in the experiment with DU-145 prostate and in the experiment on SK-MEL-2 melanoma was over 50 µM in each case.
